Patent publication US20250295612A1, “NOVEL AMYLOID-BETA AGGREGATE DEGRADER AND BRAIN-TARGETING DRUG DELIVERY SYSTEM USING SAME” (UNIVERSITY-INDUSTRY COOPERATION GROUP OF KYUNG HEE …, priority 2022, published 2025)

What was measured:
[1] = target: T1, amyloid-beta plaques (amyloid-beta (Aβ) 1-42) (Homo sapiens, UniProt P05067); assay: Thioflavin T (ThT) fluorescence analysis of amyloid-beta plaque disaggregation; format: biochemical
T1 construct: amyloid-beta (Aβ) 1-42 (Anaspec, AS-20276, MW=4514.1, 1 mg); purchased Anaspec AS-20276
Description: To prepare amyloid-beta plaques, amyloid-beta (Aβ) 1-42 (Anaspec, AS-20276, MW=4514.1, 1 mg) was dissolved in a 1× PBS buffer (pH 7.4, 1 mL) to a final concentration of 222 μM. The solution was incubated (200 rpm) at 37° C. for 3 days, and the formed amyloid-beta plaques (Aβ plaques) were used in the following in vitro experiment without additional purification. From the formed library, hit compounds were identified through fluorescence analysis using thioflavin T (ThT), a probe of amyloid-beta plaques. Specifically, each amyloid-beta plaque disaggregation candidate (100 μM) was mixed with amyloid-beta plaques (10 μM) and ThT (10 μM), and incubated at 37° C. for 24 hours, and then a change in fluorescence intensity of ThT at 482 nm was confirmed (excitation wavelength: 413 nm). The absorption and emission spectra of ThT were obtained using UV/vis absorption spectroscopy (Agilent, California, USA) and a spectrofluorophotometer (Shimadzu Corp., Kyoto, Japan). For Compound P (ANA), a hit compound confirmed in Example 1, the amyloid-beta plaque disaggregation efficacy under various concentration conditions and pH conditions was confirmed through ThT assay in the same manner as in Example 1, and an emission intensity plot of ThT (10 μM) at 482 nm was shown in FIG. 2 (excitation wavelength: 413 nm).

amyloid-beta plaques [2] = target: T2, amyloid-beta plaques (Homo sapiens, UniProt P05067); assay: TEM analysis of amyloid-beta plaque morphology; conditions: ANA (100 µM), plaques 20 μM
T2 construct: amyloid-beta (Aβ) 1-42 (Anaspec, AS-20276, MW=4514.1, 1 mg); purchased Anaspec AS-20276
Description: (§1) To prepare amyloid-beta plaques, amyloid-beta (Aβ) 1-42 (Anaspec, AS-20276, MW=4514.1, 1 mg) was dissolved in a 1× PBS buffer (pH 7.4, 1 mL) to a final concentration of 222 μM. The solution was incubated (200 rpm) at 37° C. for 3 days, and the formed amyloid-beta plaques (Aβ plaques) were used in the following in vitro experiment without additional purification.
For TEM analysis, amyloid-beta plaques (20 μM) or amyloid-beta plaques (20 μM) and a compound (ANA, 100 μM) were treated on copper grids at room temperature. Each grid treated with samples (Aβ plaques or Aβ plaques+ANA) was washed three times with DI H2O and then stained with uranyl acetate (1% w/v DI H2O, 5 μL) for 1 minute. The uranyl acetate was removed, the grids were dried at room temperature for 20 minutes, and then the morphology of amyloid-beta plaques was analyzed by transmission electron microscopic images (TEM, Tecnai, G2 F30ST, FEI Company, OR, USA).

amyloid-beta plaques [3] = target: T2, amyloid-beta plaques; assay: Confocal microscopy of amyloid-beta plaques with thioflavin S (ThS); conditions: incubation with ANA for 24 hours
Description: as §1
In addition, to evaluate the presence of amyloid-beta plaques (AB plaques) and a change in the disaggregation morphology of amyloid-beta plaques according to incubation with ANA for 24 hours, thioflavin S (ThS), a probe of amyloid-beta plaques, was additionally treated, and the change thereof was confirmed by fluorescence analysis using a confocal microscope. The samples (Aβ plaques, Aβ plaques +ANA) were added to 1 mL of a ThS (0.5%) solution, and each mixture was pipetted onto a slide glass and dried overnight at room temperature. Then, fluorescence images were obtained using a laser scanning confocal microscope (CLSM, LSM800, Zeiss, Oberkochen, Germany). Confocal images were obtained under excitation at 520 nm (laser power: 3.00%) using a detector (GaAsP, detector gain: 680 V, detector wavelength: 548 to 617 nm).

amyloid-beta plaques [4] = target: T2, amyloid-beta plaques; assay: ThT emission with supernatant of BCAP (released ANA); format: biochemical; conditions: PBS pH 7.4, 25° C., ThT 10 μM

T2 sequence (P05067 672-713 limits assumed): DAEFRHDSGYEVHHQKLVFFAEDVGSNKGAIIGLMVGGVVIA
T1 sequence (P05067 672-713 limits assumed): as above

amyloid-beta plaque disaggregation efficacy versus concentration ([1]; ANA 10 μM to 100 μM, plaques 10 μM): concentration-dependent manner | fluorescence intensity change of ThT compared to a control group ([1]; candidate 100 μM, amyloid-beta plaques 10 μM, ThT 10 μM, 37° C., 24 hours, 482 nm): 23% | morphology of amyloid-beta plaques after treatment (TEM) (amyloid-beta plaques [2]): disaggregated and released into monomers | fluorescence intensity of ThS after treatment (amyloid-beta plaques [3]): significantly reduced
Compound: Nc1ccc2cc(S(=O)(=O)O)ccc2c1 [ANA, 6-amino-2-naphthalenesulfonic acid]
amyloid-beta plaque disaggregation efficacy at low concentration ([1]; ANA 10 μM, plaques 10 μM): significantly high amyloid-beta plaque disaggregation efficacy | amyloid-beta plaque disaggregation efficacy among A-T candidates ([1]; candidate 100 μM, library screening): highest amyloid-beta plaque disaggregation efficacy | amyloid-beta plaque disaggregation efficacy under various pH conditions ([1]; pH 3, 5, 7, 7.4, and 9): showed amyloid-beta plaque disaggregation efficacy at all pH conditions | amyloid-beta plaque disaggregation efficacy at pH of the brain ([1]; pH 7.4): highest amyloid-beta plaque disaggregation efficacy | amyloid-beta plaque disaggregation efficacy of ANA released from BCAP (amyloid-beta plaques [4]): still has the amyloid-beta plaque disaggregation efficacy
